Assay results as given in US11591336B2 (Relay Therapeutics, Inc., priority 2017, dated 2023).
Structures can show the parent of a compound that is named as a salt.

Each molecule was assayed against SHP2 (Homo sapiens (Human), UniProt Q06124) (assay: SHP2 Allosteric Inhibition Assay (DiFMUP prompt fluorescence)). Details: 0.25 nM SHP2 activated with 0.5 μM peptide IRS1_pY1172(dPEG8)pY1222; substrate DiFMUP 100 μM; 25° C.
Type: biochemical

Row | SMILES | IC50 [µM]
1 | CC1(N)CCN(c2cnc3c(N4CCCc5c(-c6nc(C(=O)O)cs6)cccc54)n[nH]c3n2)CC1 [Compound 71, 2-(1-(6-(4-amino-4-methylpiperidin-1-yl)-1H-pyrazolo[3,4-b]pyrazin-3-yl)-1,2,3,4-tetrahydroquinolin-5-yl)thiazole-4-carboxylic acid] | < 1
2 | CC1(CN)CCN(c2cnc3c(N4CCCc5c(-c6cc(F)c(F)c(F)c6)cccc54)n[nH]c3n2)CC1 [Compound 72] | < 1
3 | Cc1nnc2c(-c3cccc4c3CCCN4c3n[nH]c4nc(N5CCC(C)(CN)CC5)cnc34)cccn12 [Compound 73] | < 1
4 | CC1(CN)CCN(c2cnc3c(N4CCCc5c(-c6cccc(Oc7ccccc7)c6)cccc54)n[nH]c3n2)CC1 [Compound 75] | < 1
5 | NCC1(F)CCN(c2cnc3c(N4CCCc5ncccc54)n[nH]c3n2)CC1 [Compound 76] | < 1
6 | CC1(CN)CCN(c2cnc3c(N4CCCc5cc(C#N)ccc54)n[nH]c3n2)CC1 [Compound 77] | < 1
7 | CC1(CN)CCN(c2cnc3c(N4CCCc5c(C(F)F)cccc54)n[nH]c3n2)CC1 [Compound 78] | < 1
8 | CNC(=O)c1cccc2c1CCCN2c1n[nH]c2nc(N3CCC(C)(CN)CC3)cnc12 [Compound 79, 1-(6-(4-(Aminomethyl)-4-methylpiperidin-1-yl)-1H-pyrazolo[3,4-b]pyrazin-3-yl)-N-methyl-1,2,3,4-tetrahydroquinoline-5-carboxamide] | < 1
9 | CN(C)C(=O)c1cccc2c1CCCN2c1n[nH]c2nc(N3CCC(C)(CN)CC3)cnc12 [Compound 80, 1-(6-(4-(Aminomethyl)-4-methylpiperidin-1-yl)-1H-pyrazolo[3,4-b]pyrazin-3-yl)-N,N-dimethyl-1,2,3,4-tetrahydroquinoline-5-carboxamide] | < 1
10 | COC(=O)c1ccc2c(n1)CCCN2c1n[nH]c2nc(N3CCC(C)(CN)CC3)cnc12 [Compound 81] | < 1
11 | NCC1(CO)CCN(c2cnc3c(N4CCCc5ncccc54)n[nH]c3n2)CC1 [Compound 82, (4-(aminomethyl)-1-(3-(3,4-dihydro-1,5-naphthyridin-1(2H)-yl)-1H-pyrazolo[3,4-b]pyrazin-6-yl)piperidin-4-yl)methanol dihydrochloride] | < 1
12 | CCCC1CCN(c2n[nH]c3nc(N4CCC(C)(CN)CC4)cnc23)c2ccccc21 (stereo not drawn) [Compound 83] | < 1
13 | CCC1CCN(c2n[nH]c3nc(N4CCC(C)(CN)CC4)cnc23)c2ccccc21 (stereo not drawn) [Compound 84] | < 1
14 | CCc1cccc2c1CCCN2c1n[nH]c2nc(N3CCC(C)(CN)CC3)cnc12 [Compound 85] | < 1
15 | CC1(CN)CCN(c2cnc3c(N4CCCc5c(C6CC6)cccc54)n[nH]c3n2)CC1 [Compound 86] | < 1
16 | CC1(CN)CCN(c2cnc3c(N4CCCc5c(C#N)cccc54)n[nH]c3n2)CC1 [Compound 87] | < 1
17 | CC1(CN)CCN(c2cnc3c(N4CCC(C)(C)c5ccccc54)n[nH]c3n2)CC1 [Compound 88] | < 1
18 | CC(C)C1CCN(c2n[nH]c3nc(N4CCC(C)(CN)CC4)cnc23)c2ccccc21 (stereo not drawn) [Compound 89] | < 1
19 | Cc1ccnc2c1N(c1n[nH]c3nc(N4CCC(C)(CN)CC4)cnc13)CCC2 [Compound 90] | 1 to 10
20 | CC(C)c1cccc2c1CCCN2c1n[nH]c2nc(N3CCC(C)(CN)CC3)cnc12 [Compound 91] | < 1
21 | CC1(CN)CCN(c2cnc3c(N4CCCc5cc(S(C)(=O)=O)ccc54)n[nH]c3n2)CC1 [Compound 92] | < 1
22 | CC1CCN(c2n[nH]c3nc(N4CCC(C)(CN)CC4)cnc23)c2ccc(C#N)cc21 (stereo not drawn) [Compound 93] | < 1

Next, values leading:

Row | IC50 [µM] | SMILES
23 | < 1 | CC1(CN)CCN(c2cnc3c(N4CCC(c5ccccc5)c5ccccc54)n[nH]c3n2)CC1 (stereo not drawn) [Compound 96]
24 | < 1 | CCCC1(CN)CCN(c2cnc3c(N4CCCc5ncccc54)n[nH]c3n2)CC1 [Compound 97, (1-(3-(3,4-dihydro-1,5-naphthyridin-1(2H)-yl)-1H-pyrazolo[3,4-b]pyrazin-6-yl)-4-propylpiperidin-4-yl)methanamine dihydrochloride]
25 | < 1 | CCC1(CN)CCN(c2cnc3c(N4CCCc5ncccc54)n[nH]c3n2)CC1 [Compound 98, (1-(3-(3,4-dihydro-1,5-naphthyridin-1(2H)-yl)-1H-pyrazolo[3,4-b]pyrazin-6-yl)-4-ethylpiperidin-4-yl)methanamine dihydrochloride]
26 | < 1 | CC1(CN)CCN(c2cnc3c(N4CCC(CO)c5ccccc54)n[nH]c3n2)CC1 (stereo not drawn) [Compound 99, (1-(6-(4-(Aminomethyl)-4-methylpiperidin-1-yl)-1H-pyrazolo[3,4-b]pyrazin-3-yl)-1,2,3,4-tetrahydroquinolin-4-yl)methanol]
27 | < 1 | CNC(=O)C1CCN(c2n[nH]c3nc(N4CCC(C)(CN)CC4)cnc23)c2ccccc21 (stereo not drawn) [Compound 100, 1-(6-(4-(Aminomethyl)-4-methylpiperidin-1-yl)-1H-pyrazolo[3,4-b]pyrazin-3-yl)-N-methyl-1,2,3,4-tetrahydroquinoline-4-carboxamide]
28 | < 1 | COC1(CN)CCN(c2cnc3c(N4CCCc5ncccc54)n[nH]c3n2)CC1 [Compound 101, (1-(3-(3,4-dihydro-1,5-naphthyridin-1(2H)-yl)-1H-pyrazolo[3,4-b]pyrazin-6-yl)-4-methoxypiperidin-4-yl)methanamine]
29 | < 1 | CC1(CN)CCN(c2cnc3c(N4CCC(C(F)(F)F)c5ccccc54)n[nH]c3n2)CC1 (stereo not drawn) [Compound 106]
30 | < 1 | CNC(=O)c1cccc2c1CCN2c1n[nH]c2nc(N3CCC(C)(CN)CC3)cnc12 [Compound 107, 1-(6-(4-(aminomethyl)-4-methylpiperidin-1-yl)-1H-pyrazolo[3,4-b]pyrazin-3-yl)-N-methylindoline-4-carboxamide]
31 | < 1 | CC1(CN)CCN(c2cnc3c(N4CCc5c(C(N)=O)cccc54)n[nH]c3n2)CC1 [Compound 108, 1-(6-(4-(aminomethyl)-4-methylpiperidin-1-yl)-1H-pyrazolo[3,4-b]pyrazin-3-yl)indoline-4-carboxamide]
32 | < 1 | CC1CCN(c2n[nH]c3nc(N4CCC(C)(CN)CC4)cnc23)c2ccc(C(N)=O)cc21 (stereo not drawn) [Compound 112, 1-(6-(4-(aminomethyl)-4-methylpiperidin-1-yl)-1H-pyrazolo[3,4-b]pyrazin-3-yl)-4-methyl-1,2,3,4-tetrahydroquinoline-6-carboxamide formate]
33 | < 1 | CNC(=O)c1ccc2c(c1)CCN2c1n[nH]c2nc(N3CCC(C)(CN)CC3)cnc12 [Compound 113, 1-(6-(4-(aminomethyl)-4-methylpiperidin-1-yl)-1H-pyrazolo[3,4-b]pyrazin-3-yl)-N-methylindoline-5-carboxamide]
34 | < 1 | CC1(CN)CCN(c2cnc3c(N4CCc5cc(C(N)=O)ccc54)n[nH]c3n2)CC1 [Compound 114, 1-(6-(4-(aminomethyl)-4-methylpiperidin-1-yl)-1H-pyrazolo[3,4-b]pyrazin-3-yl)indoline-5-carboxamide]
35 | < 1 | CC1(CN)CCN(c2cnc3c(N4CCC(C#N)c5ccccc54)n[nH]c3n2)CC1 (stereo not drawn) [Compound 117]
36 | < 1 | CC1(CN)CCN(c2cnc3c(N4CCc5ccccc54)n[nH]c3n2)CC1 [Compound 118]
